Experimental findings from patent publication US20240246942A1, “KINASE INHIBITORS FOR THE TREATMENT OF NEURODEGENERATIVE DISEASES” (priority 2020, published 2024) are described below.

What all share (assay): biochemical
Assay [1] concerns the target T1, panel of 374 wild-type kinases (Homo sapiens, UniProt O14733).
T1 construct: purchased Reaction Biology Corporation
T1 sequence (O14733 1-419): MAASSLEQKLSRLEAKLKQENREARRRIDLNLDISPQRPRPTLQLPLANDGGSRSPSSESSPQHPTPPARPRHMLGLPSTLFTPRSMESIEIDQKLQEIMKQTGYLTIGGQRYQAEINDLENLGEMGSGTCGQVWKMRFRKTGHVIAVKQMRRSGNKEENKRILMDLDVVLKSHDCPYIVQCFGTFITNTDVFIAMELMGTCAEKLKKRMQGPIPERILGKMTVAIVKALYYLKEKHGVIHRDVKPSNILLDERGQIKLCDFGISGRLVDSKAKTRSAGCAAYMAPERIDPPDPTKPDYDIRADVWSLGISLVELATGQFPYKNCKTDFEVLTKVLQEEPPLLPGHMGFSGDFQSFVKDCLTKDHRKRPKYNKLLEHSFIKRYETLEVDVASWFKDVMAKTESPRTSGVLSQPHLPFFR
The following applies: read-out: % Enzyme Activity (relative to DMSO controls), MKK7.

The target of assay [2] is T2, panel of 374 wild-type kinases (Homo sapiens, UniProt P00519).
T2 construct: purchased Reaction Biology Corporation
The following applies: read-out: % Enzyme Activity (relative to DMSO controls), ABL1.

Assay [3] concerns the target T3, panel of 374 wild-type kinases (Homo sapiens, UniProt P08631).
T3 construct: purchased Reaction Biology Corporation
The following applies: read-out: % Enzyme Activity (relative to DMSO controls), HCK.

The target in assay [4] is T4, panel of 374 wild-type kinases (Homo sapiens, UniProt P48729).
T4 construct: purchased Reaction Biology Corporation
T4 sequence (P48729 whole entry): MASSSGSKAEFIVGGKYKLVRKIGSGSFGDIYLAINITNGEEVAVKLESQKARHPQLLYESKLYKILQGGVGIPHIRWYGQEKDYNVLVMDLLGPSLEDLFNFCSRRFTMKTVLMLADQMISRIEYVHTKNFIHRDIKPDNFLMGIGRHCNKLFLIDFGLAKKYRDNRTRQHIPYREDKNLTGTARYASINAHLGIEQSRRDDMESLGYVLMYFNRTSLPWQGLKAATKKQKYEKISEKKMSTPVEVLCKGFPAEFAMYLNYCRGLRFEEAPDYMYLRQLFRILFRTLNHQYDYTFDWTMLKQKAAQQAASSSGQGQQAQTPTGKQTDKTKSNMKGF
The following applies: read-out: % Enzyme Activity (relative to DMSO controls), CK1a1.

The target of assay [5] is T5, panel of 374 wild-type kinases (Homo sapiens, UniProt P49336).
T5 construct: purchased Reaction Biology Corporation
T5 sequence (P49336 whole entry): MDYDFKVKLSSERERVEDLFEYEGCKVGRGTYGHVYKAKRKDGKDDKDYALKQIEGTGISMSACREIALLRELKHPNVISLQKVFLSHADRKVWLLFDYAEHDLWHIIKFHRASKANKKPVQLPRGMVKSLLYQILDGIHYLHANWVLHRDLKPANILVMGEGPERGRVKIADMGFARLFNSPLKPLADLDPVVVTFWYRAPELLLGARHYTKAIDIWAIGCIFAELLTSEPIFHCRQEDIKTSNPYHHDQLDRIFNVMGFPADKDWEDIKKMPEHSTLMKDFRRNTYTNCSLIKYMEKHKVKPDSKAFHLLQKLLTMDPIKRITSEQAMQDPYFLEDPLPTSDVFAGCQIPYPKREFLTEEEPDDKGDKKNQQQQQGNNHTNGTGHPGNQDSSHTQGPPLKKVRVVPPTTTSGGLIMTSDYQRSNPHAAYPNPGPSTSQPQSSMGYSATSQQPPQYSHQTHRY
The following applies: read-out: % Enzyme Activity (relative to DMSO controls), CDK8/cyclin C.

Assay [6] addresses T6, panel of 374 wild-type kinases (Homo sapiens, UniProt Q00535).
T6 construct: purchased Reaction Biology Corporation

Assay [7] concerns the target T7, panel of 374 wild-type kinases (Homo sapiens, UniProt Q15349).
T7 construct: purchased Reaction Biology Corporation
The following applies: read-out: % Enzyme Activity (relative to DMSO controls), kinase RSK3.

In assay [8] the target is T8, panel of 374 wild-type kinases (Homo sapiens, UniProt Q15835).
T8 construct: purchased Reaction Biology Corporation
T8 sequence (Q15835 1-563): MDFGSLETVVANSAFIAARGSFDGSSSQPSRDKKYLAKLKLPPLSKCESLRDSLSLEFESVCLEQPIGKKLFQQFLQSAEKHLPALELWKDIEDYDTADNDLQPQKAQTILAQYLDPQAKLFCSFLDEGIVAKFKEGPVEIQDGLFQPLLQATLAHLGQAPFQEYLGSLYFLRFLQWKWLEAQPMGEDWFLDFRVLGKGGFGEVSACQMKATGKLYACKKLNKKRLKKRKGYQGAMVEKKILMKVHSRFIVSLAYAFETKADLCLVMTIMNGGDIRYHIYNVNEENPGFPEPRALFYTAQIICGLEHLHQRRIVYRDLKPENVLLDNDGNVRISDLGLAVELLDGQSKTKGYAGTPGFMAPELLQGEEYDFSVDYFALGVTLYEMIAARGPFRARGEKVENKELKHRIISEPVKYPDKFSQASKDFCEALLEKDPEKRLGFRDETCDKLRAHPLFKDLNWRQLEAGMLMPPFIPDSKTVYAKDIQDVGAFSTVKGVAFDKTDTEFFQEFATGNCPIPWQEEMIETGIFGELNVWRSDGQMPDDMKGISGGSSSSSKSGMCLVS
The following applies: read-out: % Enzyme Activity (relative to DMSO controls), GRK1.

In assay [9] the target is T9, panel of 374 wild-type kinases (Homo sapiens, UniProt Q5S007).
T9 construct: purchased Reaction Biology Corporation
T9 sequence (Q5S007 whole entry): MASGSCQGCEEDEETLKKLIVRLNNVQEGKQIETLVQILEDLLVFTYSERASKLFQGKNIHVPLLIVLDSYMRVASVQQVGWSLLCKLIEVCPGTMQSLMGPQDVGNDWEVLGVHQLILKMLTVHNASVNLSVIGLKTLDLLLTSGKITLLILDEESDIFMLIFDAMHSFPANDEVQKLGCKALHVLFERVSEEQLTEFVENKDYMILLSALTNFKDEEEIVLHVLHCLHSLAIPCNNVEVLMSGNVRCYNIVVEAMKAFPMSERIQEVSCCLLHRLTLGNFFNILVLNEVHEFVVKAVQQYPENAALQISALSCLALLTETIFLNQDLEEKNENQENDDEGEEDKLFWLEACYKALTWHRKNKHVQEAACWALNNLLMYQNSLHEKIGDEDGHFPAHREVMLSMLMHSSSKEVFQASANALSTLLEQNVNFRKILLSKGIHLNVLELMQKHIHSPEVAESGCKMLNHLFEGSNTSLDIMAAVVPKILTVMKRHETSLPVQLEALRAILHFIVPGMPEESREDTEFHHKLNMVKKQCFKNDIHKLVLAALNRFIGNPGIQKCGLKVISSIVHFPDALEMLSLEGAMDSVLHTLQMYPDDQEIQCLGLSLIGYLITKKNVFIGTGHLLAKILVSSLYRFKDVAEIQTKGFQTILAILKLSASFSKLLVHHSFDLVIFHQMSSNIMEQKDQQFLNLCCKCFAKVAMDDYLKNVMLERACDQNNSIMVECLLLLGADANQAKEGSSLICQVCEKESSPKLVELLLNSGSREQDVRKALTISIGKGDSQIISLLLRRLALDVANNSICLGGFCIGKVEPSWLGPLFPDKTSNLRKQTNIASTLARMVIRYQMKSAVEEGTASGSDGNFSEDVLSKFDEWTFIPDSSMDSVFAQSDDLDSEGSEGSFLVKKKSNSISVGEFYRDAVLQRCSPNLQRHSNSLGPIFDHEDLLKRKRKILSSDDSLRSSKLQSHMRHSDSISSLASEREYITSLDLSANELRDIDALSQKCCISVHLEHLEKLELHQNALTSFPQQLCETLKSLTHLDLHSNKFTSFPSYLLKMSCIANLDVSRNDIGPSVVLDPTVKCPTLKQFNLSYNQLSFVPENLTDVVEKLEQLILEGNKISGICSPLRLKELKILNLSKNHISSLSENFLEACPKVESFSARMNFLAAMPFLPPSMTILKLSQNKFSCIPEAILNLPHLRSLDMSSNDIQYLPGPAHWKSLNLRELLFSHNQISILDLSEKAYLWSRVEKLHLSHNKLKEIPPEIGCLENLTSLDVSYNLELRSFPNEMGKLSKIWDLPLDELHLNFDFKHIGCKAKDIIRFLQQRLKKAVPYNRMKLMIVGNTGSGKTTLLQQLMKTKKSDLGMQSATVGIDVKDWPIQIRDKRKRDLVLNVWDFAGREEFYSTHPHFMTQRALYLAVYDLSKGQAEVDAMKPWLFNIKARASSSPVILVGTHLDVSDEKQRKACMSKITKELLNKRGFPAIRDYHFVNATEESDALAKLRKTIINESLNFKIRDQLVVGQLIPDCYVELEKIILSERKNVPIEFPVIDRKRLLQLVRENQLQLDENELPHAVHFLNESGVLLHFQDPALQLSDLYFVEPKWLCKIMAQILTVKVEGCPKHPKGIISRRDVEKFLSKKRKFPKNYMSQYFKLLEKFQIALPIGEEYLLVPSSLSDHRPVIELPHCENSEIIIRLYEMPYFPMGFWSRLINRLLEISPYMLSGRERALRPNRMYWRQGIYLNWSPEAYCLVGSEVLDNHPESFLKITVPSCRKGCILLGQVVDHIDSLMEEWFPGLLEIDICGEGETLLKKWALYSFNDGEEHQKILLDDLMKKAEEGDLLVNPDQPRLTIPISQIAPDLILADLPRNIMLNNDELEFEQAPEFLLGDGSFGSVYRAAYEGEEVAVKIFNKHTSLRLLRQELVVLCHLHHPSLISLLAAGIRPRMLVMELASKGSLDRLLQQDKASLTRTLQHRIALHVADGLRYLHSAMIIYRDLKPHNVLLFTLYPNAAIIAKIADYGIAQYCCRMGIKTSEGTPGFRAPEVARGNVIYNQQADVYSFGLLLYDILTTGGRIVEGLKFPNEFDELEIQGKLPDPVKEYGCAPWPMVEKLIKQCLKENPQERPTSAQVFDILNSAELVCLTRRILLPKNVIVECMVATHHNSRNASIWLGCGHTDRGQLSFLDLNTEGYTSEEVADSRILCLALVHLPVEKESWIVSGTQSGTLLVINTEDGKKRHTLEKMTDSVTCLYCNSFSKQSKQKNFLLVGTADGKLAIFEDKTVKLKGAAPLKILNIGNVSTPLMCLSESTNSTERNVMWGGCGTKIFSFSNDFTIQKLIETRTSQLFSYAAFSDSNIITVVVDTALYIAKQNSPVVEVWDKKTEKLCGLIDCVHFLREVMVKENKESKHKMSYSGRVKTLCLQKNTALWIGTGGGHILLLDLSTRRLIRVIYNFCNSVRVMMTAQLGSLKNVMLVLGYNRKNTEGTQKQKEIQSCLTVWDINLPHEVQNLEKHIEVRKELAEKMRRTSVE
The following applies: read-out: % Enzyme Activity (relative to DMSO controls), LRRK2.

Assay [10] addresses T10, panel of 374 wild-type kinases (Homo sapiens, UniProt Q8NE63).
T10 construct: purchased Reaction Biology Corporation
T10 sequence (Q8NE63 1-616): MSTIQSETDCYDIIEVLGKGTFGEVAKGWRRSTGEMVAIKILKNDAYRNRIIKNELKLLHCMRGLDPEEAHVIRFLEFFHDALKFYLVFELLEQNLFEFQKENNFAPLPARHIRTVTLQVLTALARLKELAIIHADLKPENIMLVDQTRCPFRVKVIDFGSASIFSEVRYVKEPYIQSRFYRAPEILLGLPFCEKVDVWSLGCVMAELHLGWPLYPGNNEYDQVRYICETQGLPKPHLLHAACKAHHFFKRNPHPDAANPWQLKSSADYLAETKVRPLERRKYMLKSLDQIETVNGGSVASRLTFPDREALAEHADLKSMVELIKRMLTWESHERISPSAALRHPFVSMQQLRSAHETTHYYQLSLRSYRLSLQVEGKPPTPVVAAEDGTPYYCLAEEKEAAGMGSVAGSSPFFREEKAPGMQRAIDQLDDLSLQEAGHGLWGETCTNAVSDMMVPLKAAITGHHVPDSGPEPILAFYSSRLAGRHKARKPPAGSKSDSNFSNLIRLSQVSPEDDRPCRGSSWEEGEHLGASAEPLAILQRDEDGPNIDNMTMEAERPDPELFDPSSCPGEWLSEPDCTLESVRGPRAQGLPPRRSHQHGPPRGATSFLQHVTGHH
The following applies: read-out: % Enzyme Activity (relative to DMSO controls), HIPK4.

Assay [11] addresses T11, panel of 374 wild-type kinases (Homo sapiens, UniProt Q9HBY8).
T11 construct: purchased Reaction Biology Corporation
The following applies: read-out: % Enzyme Activity (relative to DMSO controls), kinase SGK2.

Setting [12] is: read-out: % Enzyme Activity (relative to DMSO controls), CDK5/P25.
Setting [13] is: read-out: % Enzyme Activity (relative to DMSO controls), CDK5/p35.

SMILES strings stand for the structures. Read-outs that look alike come from different tables or passages of the source.

T3 sequence (P08631 whole entry): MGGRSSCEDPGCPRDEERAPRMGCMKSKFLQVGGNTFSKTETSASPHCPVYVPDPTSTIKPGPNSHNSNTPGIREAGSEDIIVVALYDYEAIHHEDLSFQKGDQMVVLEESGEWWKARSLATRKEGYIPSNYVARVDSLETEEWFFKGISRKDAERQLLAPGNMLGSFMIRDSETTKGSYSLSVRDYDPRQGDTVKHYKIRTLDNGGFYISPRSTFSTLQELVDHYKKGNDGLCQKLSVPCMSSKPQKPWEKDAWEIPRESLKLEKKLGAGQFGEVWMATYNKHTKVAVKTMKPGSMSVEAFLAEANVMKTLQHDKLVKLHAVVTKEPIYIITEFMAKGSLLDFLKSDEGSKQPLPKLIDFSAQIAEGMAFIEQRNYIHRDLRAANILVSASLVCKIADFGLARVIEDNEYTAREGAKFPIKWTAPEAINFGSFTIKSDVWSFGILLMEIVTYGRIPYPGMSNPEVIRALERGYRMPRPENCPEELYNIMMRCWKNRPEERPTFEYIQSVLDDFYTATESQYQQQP
T7 sequence (Q15349 whole entry): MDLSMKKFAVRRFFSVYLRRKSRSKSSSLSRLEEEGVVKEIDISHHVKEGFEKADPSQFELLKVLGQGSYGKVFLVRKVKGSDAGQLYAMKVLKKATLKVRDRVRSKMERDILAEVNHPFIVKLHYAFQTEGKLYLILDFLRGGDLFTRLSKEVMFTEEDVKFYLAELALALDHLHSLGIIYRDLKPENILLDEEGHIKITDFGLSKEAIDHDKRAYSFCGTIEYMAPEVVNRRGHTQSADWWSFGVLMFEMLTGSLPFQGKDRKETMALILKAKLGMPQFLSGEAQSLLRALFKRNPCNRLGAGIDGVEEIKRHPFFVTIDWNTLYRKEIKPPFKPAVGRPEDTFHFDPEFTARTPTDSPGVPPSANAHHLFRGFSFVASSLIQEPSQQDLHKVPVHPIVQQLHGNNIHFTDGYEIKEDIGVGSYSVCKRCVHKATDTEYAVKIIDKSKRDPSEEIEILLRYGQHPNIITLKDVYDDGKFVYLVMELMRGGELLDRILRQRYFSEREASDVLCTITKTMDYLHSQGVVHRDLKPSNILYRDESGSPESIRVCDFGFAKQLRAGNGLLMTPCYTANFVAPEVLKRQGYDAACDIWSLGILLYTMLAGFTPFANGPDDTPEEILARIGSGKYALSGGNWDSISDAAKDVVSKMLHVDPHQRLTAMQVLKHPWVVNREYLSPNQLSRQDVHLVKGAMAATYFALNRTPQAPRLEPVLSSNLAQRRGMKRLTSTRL
T11 sequence (Q9HBY8 whole entry): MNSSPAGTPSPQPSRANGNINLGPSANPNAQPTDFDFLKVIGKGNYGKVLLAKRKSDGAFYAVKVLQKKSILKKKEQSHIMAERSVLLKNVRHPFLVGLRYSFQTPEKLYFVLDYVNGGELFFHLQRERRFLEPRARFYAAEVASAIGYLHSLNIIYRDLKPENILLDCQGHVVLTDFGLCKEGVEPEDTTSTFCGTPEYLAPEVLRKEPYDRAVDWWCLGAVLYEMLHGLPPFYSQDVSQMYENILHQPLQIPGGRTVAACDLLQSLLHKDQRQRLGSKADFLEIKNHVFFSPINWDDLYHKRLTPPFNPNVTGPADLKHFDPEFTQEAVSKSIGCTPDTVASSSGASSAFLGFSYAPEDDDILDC

As for `O=C(Nc1cnn(-c2csc(C(=O)NC3COC3)c2)c1)Nc1ccccc1Cl` [Compound 17, 4-(4-(3-(2-chlorophenyl)ureido)-1H-pyrazol-1-yl)-N-(oxetan-3-yl)thiophene-2-carboxamide], the remaining activity at 5 µM in assay [1] came out at 112%; in assay [2], 83.4%; in assay [3] it was 94%; in [4], 98.5%; in [5], 101%; in assay [6] (setting [12]), 101%. Besides, the remaining activity at 5 µM in [6] (setting [13]) amounted to 95.4%; in assay [7], 103%; in [8], 91.9%; in [9] it was 88.2%; in [10], 100%; in [11] it was 101%.
For the molecule `O=C(Nc1cnn(-c2csc(C(=O)NC3COC3)c2)c1)Nc1c(F)cccc1Cl` [Compound 25, 4-(4-(3-(2-chloro-6-fluorophenyl)ureido)-1H-pyrazol-1-yl)-N-(oxetan-3-yl)thiophene-2-carboxamide], the remaining activity at 5 µM came to 135% in assay [1]; 101% in assay [2]; 91.3% in [3]; 76.6% in assay [4]; 99% in assay [5]; 88.2% in assay [6] (setting [12]). Further, the remaining activity at 5 µM in assay [6] (setting [13]) was 94.3%; in [7], 90.1%; in assay [8] it was 92.9%; in assay [9], 91.3%; in [10] it was 111%; in assay [11] it was 88.6%.
With `Cc1sc(C(=O)NC2COC2)cc1-n1cc(NC(=O)Nc2c(F)cccc2Cl)cn1` [Compound 27, 4-(4-(3-(2-chloro-6-fluorophenyl)ureido)-1H-pyrazol-1-yl)-5-methyl-N-(oxetan-3-yl)thiophene-2-carboxamide], the remaining activity at 10 µM in assay [1] (10 uM) worked out at 120%; in [2] (10 uM) it was 102%; in assay [3] (10 uM), 95%; in [4] (10 uM), 81.1%; in [5] (10 uM), 92.7%; in assay [6] (setting [12]), 97.6%. Moreover, the remaining activity at 10 µM in assay [6] (setting [13]) stood at 103%; in [7] (10 uM), 100%; in assay [8] (10 uM), 113%; in assay [9] (10 uM), 101%; in assay [10] (10 uM) it was 98.4%; in assay [11] (10 uM), 97.2%.
